Holding throughout (type): cell-based
Experiment [1] addresses T1, MycC protein (Homo sapiens, UniProt P01106).
T1 construct: either 2×10^6 of L-363 (human leukemia cell line) or SKNBE2 (neuroblastoma cell line) cells; endogenous in cells; host or cells: L-363 / L363 human leukemia cells
Kind of experiment: Degradation of MycC protein, Western blot, L-363 cells (Example 160). The following applies: for inhibition at 2 µM: 6 h. A digest of the protocol:
(§1)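 L-363 or SKNBE2 cells (passage <40, mostly <30) at 1×10^6 cells/mL in RPMI 1640/10% FBS were exposed 6 h to compound added from a 1 mM stock. RIPA lysates (25–30 ug protein) were analysed by SDS-PAGE and immunoblot with 1:500 primary antibody, with protein level quantified by band densitometry.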
(In general: In western blotting, separated proteins are transferred to a membrane and probed.)

Experiment [2] has as its target T2, MycN protein (Homo sapiens, UniProt P04198).
T2 construct: either 2×10^6 of L-363 (human leukemia cell line) or SKNBE2 (neuroblastoma cell line) cells; endogenous in cells; host or cells: SKNBE2 / SK-N-BE(2) neuroblastoma cells
T2 sequence (P04198 1-464): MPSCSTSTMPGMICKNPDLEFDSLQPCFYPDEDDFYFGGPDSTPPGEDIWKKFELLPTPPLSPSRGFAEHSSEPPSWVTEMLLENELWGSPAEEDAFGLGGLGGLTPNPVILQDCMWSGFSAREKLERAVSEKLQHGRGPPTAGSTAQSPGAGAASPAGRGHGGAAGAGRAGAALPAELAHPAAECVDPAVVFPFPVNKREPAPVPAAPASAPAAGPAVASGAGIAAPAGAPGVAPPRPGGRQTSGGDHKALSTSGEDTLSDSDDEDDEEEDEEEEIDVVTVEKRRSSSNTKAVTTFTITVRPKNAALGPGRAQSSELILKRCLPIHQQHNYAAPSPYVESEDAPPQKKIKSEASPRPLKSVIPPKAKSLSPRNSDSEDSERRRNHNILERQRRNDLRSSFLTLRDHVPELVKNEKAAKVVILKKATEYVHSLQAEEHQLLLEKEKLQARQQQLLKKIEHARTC
The experiment in a line: Degradation of MycN protein, Western blot, SKNBE2 cells (Example 160). A digest of the protocol:
as §1

Experiment [3] deals with T3, MycC protein (c-myc) (Homo sapiens, UniProt P01106).
T3 construct: either 2×10^6 of L-363 (human leukemia cell line) cells; endogenous in cells; host or cells: L-363 / L363 human leukemia cells
The experiment in a line: Degradation of MycC protein, 24 h treatment, JESS Western, L363 cells (Example 161). The following applies: L-363 cells. The method, then:
(§2) For L363 cells (suspension), 1E6 cells were plated into each well of a 6 well plate. For SK-N-BE(2) cells (adherent), 5E5 cells were plated into each well of a 6 well dish. […] All compounds were diluted to 10 mM in DMSO. Cells were treated with the compound for 24 hrs, then for both cell types, media containing cells were removed from wells into a 15 ml centrifuge tube, and remaining adherent SK-N-BE(2) cells were also scraped from the wells into the appropriate tubes. Tubes were centrifuged, cells were washed with PBS then re-centrifuged to pellet cells. A RIPA buffer cocktail was added to the cells on ice for 5 mins. Cell lysates were clarified by centrifugation and stored at −80 degrees until required. BCA assay was performed on each lysate to determine the protein concentration.
(§3) For validation studies of antibodies, lysates and antibodies were used at a number of concentrations (Lysates: 2, 1, 0.2 mg/ml; Antibodies: 1 in 50, 1 in 200 dilution). Once an appropriate lysate concentration and antibody concentration was determined, samples were screened in the JESS technology (Protein Simple, San Jose, CA—https://www.proteinsimple.com/jess.html).
(§4) Target protein antibodies (n-myc and c-myc) were detected in the chemi-luminescence channel and loading controls (tubulin and GAPDH) were detected using a Near Infra Red (NIR) labeled secondary antibody.
(§5) For SK-N-EB2 adherent cells, 5E5 cells in 1.9 mls media were plated into 6 well dishes and incubated for 24 hrs. […] Cells were scrapped off the plate, centrifuged, washed with PBS, centrifuged, then a RIPA buffer cocktail added to the cells (100 ul), centrifuged and stored at −80 for later analysis. For L363 suspension cells, 1E6 cells were plated into […] (950 ul media) and incubated for 24 hrs. […] Cells were aspirated into tubes, centrifuged, washed with PBS, centrifuged, then a RIPA buffer cocktail added to the cells (100 ul), centrifuged and stored at −80 for later analysis.
(§6) For Western blot, a BCA (total protein) assay was run on all samples, these were then run in batches of 5 compounds plus control (DMSO) on each Western blot run—n-myc and c-myc were run in separate experiments in the chemiluminescence channel. Both tubulin and GAPDH were run as loading controls in all lanes in the near infra red channel.

The target of experiment [4] is T4, MycN protein (n-myc) (Homo sapiens, UniProt P04198).
T4 construct: either 2×10^6 of L-363 (human leukemia cell line) or SKNBE2 (neuroblastoma cell line) cells; endogenous in cells; host or cells: SKNBE2 / SK-N-BE(2) neuroblastoma cells
T4 sequence (P04198 1-464): T2 sequence (P04198 1-464)
The experiment in a line: Degradation of MycN protein, 24 h treatment, JESS Western, SK-N-BE(2) cells (Example 161). The conditions noted are these: SKNBE2 cells. The method, then:
as §2, §3, §4, §5, §6

The term inhibition denotes the relative decrease from the control value, in per cent.

Some results are limits rather than exact numbers.

T3 sequence (P01106 whole entry): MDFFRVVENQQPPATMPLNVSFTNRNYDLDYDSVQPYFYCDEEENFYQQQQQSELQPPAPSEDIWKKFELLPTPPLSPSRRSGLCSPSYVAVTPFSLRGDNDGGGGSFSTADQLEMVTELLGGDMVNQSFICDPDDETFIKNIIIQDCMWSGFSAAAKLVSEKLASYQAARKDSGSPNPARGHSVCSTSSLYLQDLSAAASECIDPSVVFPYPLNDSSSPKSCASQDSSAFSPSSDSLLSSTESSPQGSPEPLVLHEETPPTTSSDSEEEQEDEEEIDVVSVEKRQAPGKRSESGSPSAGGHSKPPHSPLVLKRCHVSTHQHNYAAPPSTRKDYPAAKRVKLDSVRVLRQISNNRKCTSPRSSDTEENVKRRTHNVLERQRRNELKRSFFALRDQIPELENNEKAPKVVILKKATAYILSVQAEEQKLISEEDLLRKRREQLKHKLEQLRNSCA
T1 sequence (P01106 whole entry): as above

As for `CN1CC2(CC(N(C)c3nccc(Nc4cc(C5CC5)[nH]n4)n3)C2)C1` [Compound 7, N4-(5-cyclopropyl-1H-pyrazol-3-yl)-N2-methyl-N2-(2-methyl-2-azaspiro[3.3]heptan-6-yl)pyrimidine-2,4-diamine], the inhibition at 2 µM in experiment [1] was 20 to 49%; in experiment [2] (SKNBE2, 6 h), under 20%. The inhibition at 0.5 µM in experiment [3] (0.5 μM) and in experiment [4] (0.5 μM) was under 20% each time. Moreover, the inhibition at 1 µM in experiment [3] (1 μM) was 20 to 49%; in experiment [4] (1 μM) it was under 20%. In addition, the inhibition at 3 µM in experiment [3] (3 μM) is 50 to 79%; in experiment [4] (3 μM) it was 20 to 49%. Also, the inhibition at 6 µM in experiment [3] (6 μM) and in experiment [4] (6 μM) was 80 to 100% each time.

As for `CN(c1nccc(Nc2cc(C3CC3)[nH]n2)n1)[C@H]1CC[C@H](NC(=O)c2cn(CC3(C)COC3)nn2)CC1` [Compound 150, N-((1R,4R)-4-((4-((5-cyclopropyl-1H-pyrazol-3-yl)amino)pyrimidin-2-yl)(methyl)amino)cyclohexyl)-1-((3-methyloxetan-3-yl)methyl)-1H-1,2,3-triazole-4-carboxamide], the inhibition at 2 µM is 80 to 100% in experiment [1] and 80 to 100% in experiment [2] (SKNBE2, 6 h).

On to `Cn1nnc2ccc(C(=O)N[C@H]3CC[C@H](N(C)c4nccc(Nc5cc(C6CC6)[nH]n5)n4)CC3)cc21` [Compound 151, N-((1R,4R)-4-((4-((5-cyclopropyl-1H-pyrazol-3-yl)amino)pyrimidin-2-yl)(methyl)amino)cyclohexyl)-1-methyl-1H-benzo[d][1,2,3]triazole-6-carboxamide], for which the inhibition at 2 µM was 80 to 100% in experiment [1] and 80 to 100% in experiment [2] (SKNBE2, 6 h).

Consider `CN(c1nccc(Nc2cc(C3CC3)[nH]n2)n1)[C@H]1CC[C@H](NS(=O)(=O)Cc2cccc(C(F)(F)F)c2)CC1` [Compound 152, N-((1R,4R)-4-((4-((5-cyclopropyl-1H-pyrazol-3-yl)amino)pyrimidin-2-yl)(methyl)amino)cyclohexyl)-1-(3-(trifluoromethyl)phenyl)methanesulfonamide], for which the inhibition at 2 µM lay in the range of 80 to 100% in experiment [1] and 80 to 100% in experiment [2] (SKNBE2, 6 h).

For `CN(c1nccc(Nc2cc(C3CC3)[nH]n2)n1)[C@H]1CC[C@H](NS(=O)(=O)c2cccc(C#N)c2)CC1` [Compound 154, 3-cyano-N-((1R,4R)-4-((4-((5-cyclopropyl-1H-pyrazol-3-yl)amino)pyrimidin-2-yl)(methyl)amino)cyclohexyl)benzenesulfonamide], the inhibition at 2 µM in experiment [1] lay within 80 to 100%; in experiment [2] (SKNBE2, 6 h) it was 50 to 79%.

As to `CN(c1nccc(Nc2cc(C3CC3)[nH]n2)n1)[C@H]1CC[C@H](NS(=O)(=O)c2cccc(S(C)(=O)=O)c2)CC1` [Compound 155, N-((1R,4R)-4-((4-((5-cyclopropyl-1H-pyrazol-3-yl)amino)pyrimidin-2-yl)(methyl)amino)cyclohexyl)-3-(methylsulfonyl)benzenesulfonamide], the inhibition at 2 µM was in the range of 80 to 100% in experiment [1] and 80 to 100% in experiment [2] (SKNBE2, 6 h).

With `CN(c1nccc(Nc2cc(C3CC3)[nH]n2)n1)[C@H]1CC[C@H](NS(=O)(=O)c2ccc(C#N)cn2)CC1` [Compound 156, 5-cyano-N-((1R,4R)-4-((4-((5-cyclopropyl-1H-pyrazol-3-yl)amino)pyrimidin-2-yl)(methyl)amino)cyclohexyl)pyridine-2-sulfonamide], the inhibition at 2 µM in experiment [1] fell in the range of 80 to 100%; in experiment [2] (6 h) it was 50 to 79%.

In the case of `CN(c1nccc(Nc2cc(C3CC3)[nH]n2)n1)[C@H]1CC[C@H](NS(=O)(=O)Cc2cccc(S(C)(=O)=O)c2)CC1` [Compound 157, N-((1R,4R)-4-((4-((5-cyclopropyl-1H-pyrazol-3-yl)amino)pyrimidin-2-yl)(methyl)amino)cyclohexyl)-1-(3-(methylsulfonyl)phenyl)methanesulfonamide], the inhibition at 2 µM in experiment [1] lay within 80 to 100%; in experiment [2] (SKNBE2, 6 h), 50 to 79%.

Consider `CN(c1nccc(Nc2cc(C3CC3)[nH]n2)n1)[C@H]1CC[C@H](NS(=O)(=O)Cc2cccc(C#N)c2)CC1` [Compound 158, 1-(3-cyanophenyl)-N-((1R,4R)-4-((4-((5-cyclopropyl-1H-pyrazol-3-yl)amino)pyrimidin-2-yl)(methyl)amino)cyclohexyl)methanesulfonamide], for which the inhibition at 2 µM was in the range of 80 to 100% in experiment [1] and 50 to 79% in experiment [2] (SKNBE2, 6 h).

“N-((1R,4R)-4-((4-((5-cyclopropyl-1H-pyrazol-3-yl)amino)pyrimidin-2-yl)(methyl)amino)cyclohexyl)-3-methylcyclopent-3-ene-1-sulfonamide [Compound 153]”: the “% Degradation of MycC (L-363) 6 h, 2 μM” value in experiment [1] is “**** (degradation 80-100%)”. The “% Degradation of MycN (SKNBE2) 6 h, 2 μM” value in experiment [2] is recorded as “**** (degradation 80-100%)”.

Source of the values: patent US20230322722A1, “MODULATORS OF MYC FAMILY PROTO-ONCOGENE PROTEIN” (Nalo Therapeutics, priority 2020, published 2023).
